Patent US9198894B2, “Uses of 15-benzylidene-14-deoxy-11,12-didehydroandrographolide derivatives in the preparation of antineoplastic drugs” (Zhengzhou University, priority 2010, dated 2015)
Where two headings read alike, the source gives them in different places. Marks after values point to notes of the source that are not given here.

Columns and labels:
[1] = test system: Eca-109 human esophageal carcinoma cells; test: Wound healing (two-dimensional migration) assay, Eca-109; format: cell-based; details: Eca-109, 10.00 μmol/l, 24 h (FIG. 1A)
Experimental: (§1) 1) Cell lines: Cell lines of 5637 human bladder carcinoma, Eca-109 human esophageal carcinoma, HT29 human colon cancer, SGC-7901 human gastric cancer, A549 human lung adenocarcinoma and PC-3 human prostate carcinoma were purchased from the Type Culture Collection of the Chinese Academy of Sciences, Shanghai, China.
(§2) 3) Methods: The cells were trypsinized to generate a single-cell suspension and seeded in 96-well plates (200 μl/well), and incubated with medium containing 10% fetal bovine serum at 37 in a humidified atmosphere with 5% CO2. Following a 24 h incubation, the cells were starved for an additional 12 h in low-serum media (1% FBS). The cultures of Eca-109, HT29, 5637, SGC-7901, A549 and PC-3 were then scratched away with a 200-μl plastic pipette tip and rinsed twice with PBS to remove wound-derived loose and dislodged cells. The cells were cultured in replaced medium without or with compounds at final concentrations of 0, 2.50, 5.00 and 10.00 μmol/L, respectively. At least seven randomly selected views along the scraped line in each well were photographed immediately and 24 h and 36 h after incubation using a digital camera at 50× magnification. The average scraped area in each well under each treatment condition was measured, and the percentage of inhibition against cell migration was calculated. % of inhibition=1−(A0−At)/(A′0−A′t)×100%, where, A0 and At are the areas of wound with compound treatment measured immediately and 24 or 36 h post-injury, respectively; A′0 and A′t are the areas of wound without compound treatment measured immediately and 24 or 36 h post-injury, respectively.

[2] = test system: A549 human lung carcinoma cells; test: Wound healing (two-dimensional migration) assay, A549; format: cell-based; details: A549, 10.00 μmol/l, 36 h (FIG. 1E)
Experimental: as §1, §2

[3] = test system: B16-F10 mouse melanoma cells; format: in vivo; details: B16-F10, C57BL/6 mice; for Lung index / Nodule number (melanoma nodules in lungs): mean ± s, n = 5
Experimental: 1) Animals: A total of 20 C57BL/6 male mice of clean grade [Number of Animal License: SCXK (Xiang) 2009-0004], weighing 18-22 g, were purchased from Hunan Slca Jingda Experimental Animal Center Company, Ltd., China.
2) Cells: B16-F10 mouse melanoma cells were purchased from Nanjing KeyGen Biotech. Co. Ltd., China.
(§3) 4) Method: B16-F10 cells in logarithmic growth phase were trypsinized, then resuspended in RPMI1640 medium containing 10% fetal bovine serum and centrifuged at 1000 rpm for 5 min. The supernatant was removed and sterile PBS was added to prepare single-cell suspension (10^7/mL). The murine melanoma lung metastasis model was established in mice via caudal vein injection of B16-F10 cells (0.2 ml/mouse). Mice were randomly divided into 4 groups (n=5) according to body weight, and 24 h later they were administrated intragastrically (ig; 0.2 ml/10 g) once a day continuously for 24 d with vehicle (tumor control group), Cyc (30 mg/kg), compound 3 at 0.85 mmol/kg and 1.10 mmol/kg. Mice were weighed and blood was collected by removing the eyeball at 24 h after the last administration. Sacrificed the mice, removed the lung and counted the number of melanoma nodules in lungs of mice under an anatomical lens. Serum obtained after centrifugation at 3000 rpm for 20 min (3K30 refrigerated centrifuge, Sigma, USA) was conserved at −20° C. Levels of TNF-α and IL-1β in serum were measured by ELISA method, which were performed in accordance with the instructions of the kits.
Data were expressed as mean±SD and statistical analysis was performed by SPSS Statistics 17.0 using a one-way analysis of variance (ANOVA) followed by unpaired t-test. A value of P<0.05 was considered statistically significant. The inhibition ratio (IR %) of lung metastasis was calculated as follows: IR %=(Nc−Nt)/Nc×100%, where Nc is the average number of nodules in lung tissues of vehicle, and Nt is that of mice treated with drugs.

TNF-α = format: in vivo, mouse; details: C57BL/6 mice, mean ± s, n = 5
IL-1β = format: in vivo, mouse; details: C57BL/6 mice, mean ± s, n = 5
[4] = format: in vivo, mouse; details: C57BL/6 mice, before vs 24 d after administration
Experimental: as §3

[5] = test system: A549 human lung adenocarcinoma; test: Colony formation assay, A549; format: cell-based
Experimental: (§4) 1) Cell lines: Cell lines of SGC-7901 human gastric cancer, A549 human lung adenocarcinoma and Hela human cervical carcinoma were purchased from the Type Culture Collection of the Chinese Academy of Sciences, Shanghai, China.
(§5) 3) Method: Colony formation assay was used. The cells were trypsinized to generate a single-cell suspension and seeded in a 6-well plate at a density of 100 cells/well, then drug-containing medium was added to the well to make the final concentration of compound to 0, 1.25, 2.50, 5.00, 7.50, 10.00 μmol/L, respectively. The experiments were performed in duplicate, and the cells were cultured at 37 in a humidified atmosphere with 5% CO2. Terminate cell culture when the clones can be seen in the culture plate, then remove the culture medium, and wash twice with PBS, fix the cells with methanol (5 ml/well) for 15 min and stain the cells with hematoxylin-eosin stain. The number of clones which comprised more than 50 cells was counted under a TS100-F-PH microscope (Nikon Company, Japan). Calculate relative colony formation ratio (%) and the IC50 values. Relative colony formation ratio (%)=(colony number of drug-administration well/colony number of control well)×100%.

[6] = test system: Hela human cervical carcinoma; test: Colony formation assay, Hela; format: cell-based; details: Hela
Experimental: as §4, §5

[7] = test system: SGC-7901 human gastric cancer; test: Colony formation assay, SGC-7901; format: cell-based
Experimental: as §4, §5

[8] = test system: 5637 human urinary bladder cancer cells; test: Wound healing (two-dimensional migration) assay, 5637; format: cell-based; details: 5637, 10.00 μmol/l, 24 h (FIG. 1C)
Experimental: as §1, §2

[9] = test system: SGC-7901 human gastric adenocarcinoma cells; test: Wound healing (two-dimensional migration) assay, SGC-7901; format: cell-based; details: SGC-7901, 10.00 μmol/l, 36 h (FIG. 1D)
Experimental: as §1
as §2, with “The cells were cultured in replaced medium without or with compounds at final concentrations of 0, 2.50, 5.00 and 10.00 μmol/L, respectively. At least seven randomly selected views along the scraped line in each well were photographed immediately and 24 h and 36 h after incubation using a digital camera at 50× magnification.” left out

[10] = test system: ECV304 human vascular endothelial cells; test: Two-dimensional migration of ECV304 (wound healing); format: cell-based; details: 10.00 μmol/L (FIG. 2A)
[11] = read-out: Inhibition against tumor cell colony formation IC50

C=C1CCC2C(C)(COC(=O)c3cccnc3)C(OC(=O)c3cccnc3)CCC2(C)C1C=CC1=CC(=Cc2ccc(Cl)cc2)OC1=O (stereo not shown) [Compound 3, 15-p-chlorobenzylidene-14-deoxy-11,12-didehydro-3,19-dinicotinate andrographolide]
Inhibitory effect on two-dimensional migration [1]: much stronger than that of other tumor cells | Inhibitory effect on two-dimensional migration [2]: much stronger than that of other tumor cells | IR (%) of lung metastasis ([3]; 0.85 mmol/kg ig 24 d): 58.04% | IR (%) of lung metastasis ([3]; 0.85 mmol/kg ig 24 d, listed as compound 3): 58.04% | Lung index ([3]; 0.85 mmol/kg ig 24 d): 6.19 ± 0.76 mg/g | Nodule number (melanoma nodules in lungs) ([3]; 0.85 mmol/kg ig 24 d): 35.25 ± 14.45 | IR (%) of lung metastasis ([3]; 1.10 mmol/kg ig 24 d): 65.18% | IR (%) of lung metastasis ([3]; 1.10 mmol/kg ig 24 d, listed as compound 3): 65.18% | Lung index ([3]; 1.10 mmol/kg ig 24 d): 6.39 ± 0.57 mg/g | Nodule number (melanoma nodules in lungs) ([3]; 1.10 mmol/kg ig 24 d): 29.25 ± 881**^∇ | TNF-α in serum (TNF-α; 0.85 mmol/kg ig 24 d): 0.52 ± 5.90 | TNF-α in serum (TNF-α; 1.10 mmol/kg ig 24 d): 11.11 ± 5.96 | IL-1β in serum (IL-1β; 0.85 mmol/kg ig 24 d): 30.76 ± 3.25 pg/mL | IL-1β in serum (IL-1β; 1.10 mmol/kg ig 24 d): 17.86 ± 3.41 pg/mL | Average net increase in body weight ([4]; 0.85 mmol/kg ig): 1.64 g | Average net increase in body weight ([4]; 1.10 mmol/kg ig): 2.00 g

C=C1CCC2C(C)(CO)C(O)CCC2(C)C1C=CC1=CC(=Cc2ccc(Cl)cc2)OC1=O (stereo not shown) [Compound 2, 15-p-chlorobenzylidene-14-deoxy-11,12-didehydro-andrographolide]
Inhibition of colony formation compared with andrographolide [5]: remarkably stronger than that of andrographolide | IC50 [5, 11]: 1420 nM | Inhibition of colony formation compared with andrographolide [6]: remarkably stronger than that of andrographolide | IC50 [6, 11]: 1380 nM | Inhibition of colony formation compared with andrographolide [7]: remarkably stronger than that of andrographolide | IC50 [7, 11]: 2100 nM | Inhibitory effect on two-dimensional migration [8]: much stronger than that of other tumor cells | Inhibitory effect on two-dimensional migration [9]: much stronger than that of other tumor cells | Inhibition of two-dimensional migration of ECV304 [10]: the most significant one
